Assay [1] relates to HepG2 cells derived from human liver cancer. Put plainly: EPO production in HepG2 cells (EPO ELISA of culture supernatant). Format: cell-based. The following applies: Homo sapiens; for activity at 3 µM: HepG2, 3 μM test compound, 48 hrs, 4% oxygen, non-stimulated state without compound = 100%, read-out: amount of EPO production, % of control (3 μM); for activity at 10 µM: HepG2, 48 h, final concentration 10 μM, non-stimulated state = 100%, read-out: enhancement of EPO production. As to the method:
HepG2 cells derived from human liver cancer were inoculated in an amount of 5×10^4 cells per well on a 48-well plate, using minimum essential medium (MEM, Sigma-Aldrich Company) containing 10% bovine fetal serum. On the next day, the medium was exchanged with Dulbecco's modified eagle medium (DMEM (Sigma-Aldrich Company)) containing 10% bovine fetal serum without Phenol Red. Then, a test compound dissolved in DMSO was added thereto to obtain a final concentration of 3 μM or 10 μM, and the amount of medium was adjusted to 400 μL per well. The cells were incubated for 48 hrs in a CO2 incubator in which the oxygen concentration was adjusted to 4%, and then the culture supernatant was collected. The EPO concentration in the culture supernatant was immediately measured using an EPO ELISA kit (Roche Diagnostics GmbH). The method was carried out according to the operation manual.
The amount of EPO production in a non-stimulated state where no compounds were added, was designated as 100%, and the amount of EPO production (% of control) induced by each of the compounds was determined.

The subject of assay [2] is K562 cells, a human proerythroblast cell line. Put plainly: Hemoglobin production in K562 cells (fluorescence of the porphyrin ring). The format is cell-based. The following applies: Homo sapiens, K562, 144 h; 6 μM test compound, 3 + 3 days incubation; non-stimulated state without compound = 100; read-out: amount of hemoglobin, % of control (6 μM). The protocol:
K562 cells (obtained from ATCC), which is a human proerythroblast cell line, were inoculated at a concentration of 1×10^5 cells/1 mL in each well of a 24-well plate, using complete medium (RPMI-1640 medium containing 10% bovine fetal serum), and 1 μL of a test compound at a 1000-fold concentration was added to each well. Subsequently, the cells were incubated for 3 days in a CO2 incubator (37° C., 5% CO2). The medium was exchanged, and the cells were further incubated for 3 days. The cells were collected and counted. Subsequently, the amount of hemoglobin produced in the cells was determined by adjusting the number of cells to 3×10^5 cells, and measuring the fluorescence of the porphyrin ring. That is, the cells collected by centrifugation were suspended in 500 μL of 2 M oxalic acid, and were heated to boil for 30 minutes. The cells were cooled, and then the fluorescence intensity was measured by using a fluorescence microplate reader (Spectra MAX GeminiEM; Molecular Devices Corp.) ([…]). The amount of hemoglobin in a non-stimulated state where no compound was added was designated as 100-, and the amount of hemoglobin (% of control) produced as induced by each of the compounds was determined.

Each structure is given as a SMILES string.

Drawing on patent publication US9045423B2, “Prophylactic and/or therapeutic agent for anemia comprising tetrahydroquinoline compound as active ingredient” (KOWA COMPANY, LTD., priority 2009, dated 2015), this text covers activity for 24 compounds.

As to `CC(=O)N1c2ccc(C(=O)NC(C)C)cc2C(Nc2ccc(N3CCOCC3)cc2)CC1C` (stereo not drawn) [Compound 176, 1-Acetyl-N-isopropyl-2-methyl-4-[(4-morpholinophenyl)-amino]-1,2,3,4-tetrahydroquinoline-6-carboxamide], the activity at 3 µM in assay [1] stood at 325%. In addition, in assay [2], the activity at 6 µM worked out at 355%.
The matching figures for `CCOC(=O)c1ccc2c(c1)C(Nc1ccc(-c3csc(C)n3)cc1)CC(C)N2C(C)=O` (stereo not drawn) [Compound 162, Ethyl 1-Acetyl-2-methyl-4-{[4-(2-methylthiazol-4-yl)-phenyl]amino}-1,2,3,4-tetrahydroquinoline-6-carboxylate]: 284% and 316%.
Take `CONC(=O)c1ccc2c(c1)C(Nc1ccc(N3CCOCC3)cc1)CC(C)N2C(C)=O` (stereo not drawn) [Compound 135, 1-Acetyl-4-[(4-morpholinophenyl)-amino]-N-methoxy-2-methyl-1,2,3,4-tetrahydroquinoline-6-carboxamide]: the activity at 3 µM in assay [1] came out at 124%. Also, the activity at 6 µM in assay [2] came to 178%.
The matching figures for `CC(=O)N1c2ccc(C(=O)O)cc2C(Nc2ccc(-c3csc(C)n3)cc2)CC1C` (stereo not drawn) [Compound 163, 1-Acetyl-2-methyl-4-{[4-(2-methylthiazol-4-yl)-phenyl]amino}-1,2,3,4-tetrahydroquinoline-6-carboxylic acid]: 128% and 172%.
Consider `CC(=O)N1c2ccc(N3CCOCC3)cc2C(Nc2ccc(N3CCOCC3)cc2)CC1C` (stereo not drawn) [Compound 161, 1-Acetyl-2-methyl-6-morpholino-4-[(4-morpholinophenyl)-amino]-1,2,3,4-tetrahydroquinoline], for which the activity at 3 µM in assay [1] stood at 351%. In assay [2], the activity at 6 µM came out at 308%.
As for `COC(=O)CCCCCNC(=O)c1ccc2c(c1)C(Nc1ccc(Cl)cc1)CC(C)N2C(C)=O` (stereo not drawn) [Compound 158, Methyl 6-{1-acetyl-4-[(4-chloro-phenyl)amino]-2-methyl-1,2,3,4-tetrahydroquin-oline-6-carboxamido}-hexanoate], the activity at 10 µM in assay [1] was 248%. In addition, the activity at 6 µM in assay [2] turned out to be 411%.
For `CNC(=O)c1ccc2c(c1)C(Oc1ccc(N3CCOCC3)cc1)CC(C)N2C(C)=O` (stereo not drawn) [Compound 140, 1-Acetyl-N,2-dimethyl-4-(4-morpholinophenoxy)-1,2,3,4-tetrahydroquinoline-6-carboxamide], the activity at 3 µM in assay [1] came to 124%. Moreover, the activity at 6 µM in assay [2] was 231%.
With `CC(=O)N1c2ccc(C(=O)O)cc2C(Nc2ccc(C3CCCCC3)cc2)CC1C` (stereo not drawn) [Compound 145, 1-Acetyl-4-[(4-cyclohexylphenyl)-amino]-2-methyl-1,2,3,4-tetrahydroquinoline-6-carboxylic acid], the activity at 10 µM in assay [1] turned out to be 157%. In addition, the activity at 6 µM in assay [2] came out at 414%.
`CC(=O)N1c2ccc(C(=O)Nc3ccccn3)cc2C(Nc2ccc(N3CCOCC3)cc2)CC1C` (stereo not drawn) [Compound 177, 1-Acetyl-2-methyl-4-[(4-morpholinophenyl)-amino]-N-(pyridin-2-yl)-1,2,3,4-tetrahydroquinoline-6-carboxamide]: the activity at 3 µM in assay [1] worked out at 265%. Moreover, the activity at 6 µM in assay [2] came to 353%.
With `CNC(=O)c1ccc2c(c1)C(Nc1ccc(N3CCOCC3)cc1)CC(C)N2C(C)=O` (stereo not drawn) [Compound 132, 1-Acetyl-4-[(4-morpholinophenyl)-amino]-N,2-dimethyl-1,2,3,4-tetrahydroquinoline-6-carboxamide], the activity at 3 µM in assay [1] is 208%. Also, in assay [2], the activity at 6 µM was 198%.
For the compound `CC(=O)N1c2ccc(C(N)=O)cc2C(Nc2ccc(-c3cnns3)cc2)CC1C` (stereo not drawn) [Compound 173, 1-Acetyl-2-methyl-4-{[4-(1,2,3-thiadiazol-5-yl)-phenyl]amino}-1,2,3,4-tetrahydroquinoline-6-carboxamide], in assay [1], the activity at 3 µM was 323%. Moreover, the activity at 6 µM in assay [2] was found to be 158%.
As for `CC(=O)N1c2ccc(C(N)=O)cc2C(Oc2ccc(Cl)cc2)CC1C` (stereo not drawn) [Compound 142, 1-Acetyl-4-(4-chlorophenoxy)-2-methyl-1,2,3,4-tetrahydro-quinoline-6-carboxamide], in assay [1], the activity at 3 µM was found to be 129%. The activity at 6 µM in assay [2] turned out to be 478%.
`CC(=O)N1c2ccc(C(=O)NCCOCCOCCOCCC(=O)OC(C)(C)C)cc2C(Nc2ccc(N3CCOCC3)cc2)CC1C` (stereo not drawn) [Compound 149, Tert-butyl 12-{1-Acetyl-2-methyl-4-[(4-morpholinophenyl)-amino]-1,2,3,4-tetrahydroquinoline-6-carboxamido}-4,7,10-trioxadodecanoate]: in assay [1], the activity at 3 µM was determined as 190%. In addition, in assay [2], the activity at 6 µM worked out at 367%.
Turning to `CC(=O)N1c2ccc(C(=O)NCCO)cc2C(Nc2ccc(Cl)cc2)CC1C` (stereo not drawn) [Compound 126, 1-Acetyl-4-[(4-chlorophenyl)-amino]-N-(2-hydroxyethyl)-2-methyl-1,2,3,4-tetrahydroquinoline-6-carboxamide], the activity at 3 µM in assay [1] is 161%. In addition, the activity at 6 µM in assay [2] is 124%.
Take `CC(=O)N1c2ccc(C(N)=O)cc2C(Nc2cccc(N3CCOCC3)c2)CC1C` (stereo not drawn) [Compound 181, 1-Acetyl-2-methyl-4-[(3-morpholinophenyl)amino]-1,2,3,4-tetrahydroquinoline-6-carboxamide]: the activity at 3 µM in assay [1] came to 162%. In assay [2], the activity at 6 µM is 382%.
For `CC(=O)N1c2ccc(-c3n[nH]c(=O)o3)cc2C(Nc2ccc(N3CCOCC3)cc2)CC1C` (stereo not drawn) [Compound 134, 1-Acetyl-4-[(4-morpholinophenyl)-amino]-2-methyl-6-[1,3,4-oxadiazol-2(3H)-on-5-yl]-1,2,3,4-tetrahydroquinoline], the activity at 3 µM in assay [1] amounted to 157%. Also, in assay [2], the activity at 6 µM was found to be 298%.
As to `CC(=O)N1c2ccc(C(=O)O)cc2C(Nc2ccc(-c3cnns3)cc2)CC1C` (stereo not drawn) [Compound 172, 1-Acetyl-2-methyl-4-{[4-(1,2,3-thiadiazol-5-yl)-phenyl]amino}-1,2,3,4-tetrahydroquinoline-6-carboxylic acid], the activity at 3 µM in assay [1] came to 152%. Further, the activity at 6 µM in assay [2] was 168%.
Regarding `CC(=O)N1c2ccc(C(=O)NC3CCCCC3)cc2C(Nc2ccc(N3CCOCC3)cc2)CC1C` (stereo not drawn) [Compound 178, 1-Acetyl-N-cyclohexyl-2-methyl-4-[(4-morpholinophenyl)-amino]-1,2,3,4-tetrahydroquinoline-6-carboxamide], in assay [1], the activity at 3 µM worked out at 370%. Moreover, in assay [2], the activity at 6 µM came to 388%.
For `CCOC(=O)c1ccc2c(c1)C(Nc1ccc(-c3ncco3)cc1)CC(C)N2C(C)=O` (stereo not drawn) [Compound 167, Ethyl 1-Acetyl-2-methyl-4-{[4-(oxazol-2-yl)phenyl]-amino}-1,2,3,4-tetrahydroquinoline-6-carboxylate], the activity at 10 µM in assay [1] is 142%. Also, the activity at 6 µM in assay [2] was determined as 227%.
Take `CC(=O)NC(=O)c1ccc2c(c1)C(Nc1ccc(N3CCOCC3)cc1)CC(C)N2C(C)=O` (stereo not drawn) [Compound 175, N,1-diacetyl-2-methyl-4-[(4-morpholinophenyl)amino]-1,2,3,4-tetrahydroquinoline-6-carboxamide]: the activity at 3 µM in assay [1] turned out to be 270%. For the same compound, the activity at 6 µM in assay [2] is 275%.
The matching figures for `CC(=O)N1c2ccc(N3CCN(S(C)(=O)=O)CC3)cc2C(Nc2ccc(N3CCOCC3)cc2)CC1C` (stereo not drawn) [Compound 160, 1-Acetyl-2-methyl-6-[4-(methylsulfonyl)piperazin-1-yl]-4-[(4-morpholino-phenyl)amino]-1,2,3,4-tetrahydroquinoline]: 190% and 259%.
Take `CC(=O)N1c2ccc(C(=O)NN)cc2C(Nc2ccc(N3CCOCC3)cc2)CC1C` (stereo not drawn) [Compound 133, 1-Acetyl-4-[(4-morpholinophenyl)-amino]-2-methyl-1,2,3,4-tetrahydroquinoline-6-carbohydrazide]: the activity at 3 µM in assay [1] was determined as 113%. Also, the activity at 6 µM in assay [2] was found to be 136%.
For `COC(=O)CCCc1ccc(NC(=O)c2ccc3c(c2)C(Nc2ccc(N4CCOCC4)cc2)CC(C)N3C(C)=O)cc1` (stereo not drawn) [Compound 151, Methyl 4-(4-{1-Acetyl-2-methyl-4-[(4-morpholinophenyl)-amino]-1,2,3,4-tetrahydroquinoline-6-carboxamido}-phenyl)butanoate], the activity at 3 µM in assay [1] was 110%. Besides, the activity at 6 µM in assay [2] stood at 341%.
Take `CNC(=O)c1ccc2c(c1)C(Nc1ccc(-c3csc(C)n3)cc1)CC(C)N2C(C)=O` (stereo not drawn) [Compound 165, 1-Acetyl-N,2-dimethyl-4-{[4-(2-methylthiazol-4-yl)phenyl]amino}-1,2,3,4-tetrahydroquinoline-6-carboxamide]: the activity at 10 µM in assay [1] turned out to be 159%. The activity at 6 µM in assay [2] was determined as 304%.
